The subject of assay [1] is HCV replicon I389luc-ubi-neo/NS3-3′/ET in ET (Huh-lucubineo-ET) cell line. The experiment in a line: Replicon assay (luciferase reporter). Type of assay: cell-based. Conditions: Hepatitis C virus, read-out: % inhibition of replication (luciferase). The method, then:
A cell line, ET (Huh-lucubineo-ET) was used for screening of compounds for inhibiting HCV RNA dependent RNA polymerase. The ET cell line was stably transfected with RNA transcripts harboring a I389luc-ubi-neo/NS3-3′/ET; replicon with firefly luciferase-ubiquitin-neomycin phosphotransferase fusion protein and EMCV-IRES driven NS3-5B polyprotein containing the cell culture adaptive mutations (E1202G; T1280I; K1846T) (Krieger at al, 2001 and unpublished). The ET cells were grown in DMEM, supplemented with 10% fetal calf serum, 2 mM Glutamine, Penicillin (100 IU/mL)/Streptomycin (100 μg/mL), 1× nonessential amino acids, and 250 μg/mL G418 (“Geneticin”). They were all available through Life Technologies (Bethesda, Md.). The cells were plated at 0.5-1.0×10^4 cells/well in the 96 well plates and incubated for 24 hrs before adding test compound. […] Luciferase activity was measured 48-72 hours later by adding a lysis buffer and the substrate (Catalog number Glo-lysis buffer E2661 and Bright-Glo luciferase system E2620 Promega, Madison, Wis.). […] Under the same condition, cytotoxicity of the compounds was determined using cell proliferation reagent, WST-1 (Roche, Germany). […] IC50 and TC50 values were calculated by fitting % inhibition at each concentration to the following equation: % inhibition=100%/[(IC50/[I])^b+1] where b is Hill's coefficient. […]

In the next assay the target is T1, HCV-NS5b (Hepatitis C virus genotype 1b, UniProt Q9WMX2).
T1 construct: The cloned fragment was missing the C terminus 21 amino acid residues; (His)6 (C); made in house; host or cells: XL-1 cells (E. coli)
The experiment in a line: HCV-NS5b enzyme assay. It counts as biochemical. Conditions: recombinant NS5b, 37° C., 2 hours, read-out: % inhibition of polymerase activity ([3H]-UTP incorporation). From the text:
The coding sequence of NS5b protein was cloned by PCR from pFKI389luc/NS3-3′/ET as described by Lohmann, V., et al. (1999) Science 285, 110-113 using the primers shown on page 266 of WO 2005/012288.
The cloned fragment was missing the C terminus 21 amino acid residues. The cloned fragment was inserted into an IPTG-inducible expression plasmid that provides an epitope tag (His)6 at the carboxy terminus of the protein.
The recombinant enzyme was expressed in XL-1 cells and after induction of expression, the protein was purified using affinity chromatography on a nickel-NTA column. Storage condition was 10 mM Tris-HCl pH 7.5, 50 mM NaCl, 0.1 mM EDTA, 1 mM DTT, 20% glycerol at −20° C.
The polymerase activity was assayed by measuring incorporation of radiolabeled UTP into a RNA product using a biotinylated, heteropolymeric template, which includes a portion of the HCV genome. Typically, the assay mixture (34 μL) contains 10 mM Tris-HCl (pH 7.5), 5 mM MgCl2, 0.2 mM EDTA, 10 mM KCl, 1 unit/μL RNAsin, 1 mM DTT, 10 μM each of NTP, including [^3H]-UTP, and 10 ng/μL biotinylated heteropolymeric template. […] Incorporation of radioactivity was determined by scintillation counting (cpm). The % Inhibition at a particular concentration was determined using the following equation, % Inhibition=100−[100*(cpm with inhibitor−bg)/(cpm with no inhibitor−bg)] where bg was the background with no enzyme.

Take `C#Cc1cn(C2OC(COP(=O)(NC(C)C(=O)OC)Oc3ccccc3)[C@@H](O)[C@@]2(C)F)c2ncnc(N)c12` (stereo partly drawn) [[4-Amino-5-ethynyl-7-(2-deoxy-2-fluoro-2-C-methyl-β-D-ribofuanosyl)-7H-pyrrolo[2,3-d]pyrimidine]5′-[Rp/Sp-Methoxyalaninylphenylphosphate]]: the inhibition at 12.5 µM in assay [1] came out at 11%.

`C#Cc1cn(C2OC(CO)[C@@H](O)[C@@]2(C)F)c2ncnc(N)c12` (stereo in doubt) [4-Amino-5-ethynyl-7-(2-deoxy-2-fluoro-2-C-methyl-β-D-ribofuanosyl)-7H-pyrrolo[2,3-d]pyrimidine]: the inhibition at 50 µM in assay [1] is 60%.

Turning to `C#Cc1cn(C2OC(COP(=O)(O)OP(=O)(O)OP(=O)(O)O)[C@@H](O)[C@@]2(C)F)c2ncnc(N)c12` (stereo partly drawn) [[4-Amino-5-ethynyl-7-(2-deoxy-2-fluoro-2-C-methyl-β-D-ribofuanosyl)-7H-pyrrolo[2,3-d]pyrimidine]5′-triphosphate], the inhibition at 6 µM at HCV-NS5b turned out to be 95%.
